# Tested on: P12-Ichikawa
# Test: cell viability relative to DMSO control; higher = less cytotoxic
# Conditions: 48 h
# Procedure, shortened: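 Viability is a per-plate percentage relative to DMSO wells, with cell-free wells as background. CellTiter-Glo One luminescence was read after 48 h at 37°C on 1536-well plates (5 μl) of NOMO1 or SEM (500 cells/well) or P12-Ichikawa (1000 cells/well) leukemia cells. The cells had been adapted for at least four passages in each medium and pin-dosed with library compounds in DMSO from 47 μM to 0.79 nM in 11 threefold steps.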
# [1] = HPLM + 10% dialyzed FBS, 0.000781 µM
# [2] = HPLM + 10% dialyzed FBS, 0.00234 µM
# [3] = HPLM + 10% dialyzed FBS, 0.00702 µM
# [4] = HPLM + 10% dialyzed FBS, 0.0211 µM
# [5] = HPLM + 10% dialyzed FBS, 0.0632 µM
# [6] = HPLM + 10% dialyzed FBS, 0.19 µM
# [7] = HPLM + 10% dialyzed FBS, 0.569 µM
# [8] = HPLM + 10% dialyzed FBS, 1.71 µM
# [9] = HPLM + 10% dialyzed FBS, 5.12 µM
# [10] = HPLM + 10% dialyzed FBS, 15.4 µM
# [11] = HPLM + 10% dialyzed FBS, 46.1 µM
# [12] = RPMI 5 mM glucose + 10% dialyzed FBS, 0.000781 µM
# [13] = RPMI 5 mM glucose + 10% dialyzed FBS, 0.00234 µM
# [14] = RPMI 5 mM glucose + 10% dialyzed FBS, 0.00702 µM
# [15] = RPMI 5 mM glucose + 10% dialyzed FBS, 0.0211 µM
# [16] = RPMI 5 mM glucose + 10% dialyzed FBS, 0.0632 µM
# [17] = RPMI 5 mM glucose + 10% dialyzed FBS, 0.19 µM
# [18] = RPMI 5 mM glucose + 10% dialyzed FBS, 0.569 µM
# [19] = RPMI 5 mM glucose + 10% dialyzed FBS, 1.71 µM
# [20] = RPMI 5 mM glucose + 10% dialyzed FBS, 5.12 µM
# [21] = RPMI 5 mM glucose + 10% dialyzed FBS, 15.4 µM
# [22] = RPMI 5 mM glucose + 10% dialyzed FBS, 46.1 µM
# [23] = RPMI 5 mM glucose + 10% FBS, 0.000781 µM
# [24] = RPMI 5 mM glucose + 10% FBS, 0.00234 µM
# [25] = RPMI 5 mM glucose + 10% FBS, 0.00702 µM
# [26] = RPMI 5 mM glucose + 10% FBS, 0.0211 µM
# [27] = RPMI 5 mM glucose + 10% FBS, 0.0632 µM
# [28] = RPMI 5 mM glucose + 10% FBS, 0.19 µM
# [29] = RPMI 5 mM glucose + 10% FBS, 0.569 µM
# [30] = RPMI 5 mM glucose + 10% FBS, 1.71 µM
# [31] = RPMI 5 mM glucose + 10% FBS, 5.12 µM
# [32] = RPMI 5 mM glucose + 10% FBS, 15.4 µM
# [33] = RPMI 5 mM glucose + 10% FBS, 46.1 µM
SMILES,cell viability [1],cell viability [2],cell viability [3],cell viability [4],cell viability [5],cell viability [6],cell viability [7],cell viability [8],cell viability [9],cell viability [10],cell viability [11],cell viability [12],cell viability [13],cell viability [14],cell viability [15],cell viability [16],cell viability [17],cell viability [18],cell viability [19],cell viability [20],cell viability [21],cell viability [22],cell viability [23],cell viability [24],cell viability [25],cell viability [26],cell viability [27],cell viability [28],cell viability [29],cell viability [30],cell viability [31],cell viability [32],cell viability [33]
COc1ccccc1N1CCN(CC(O)COc2cccc3ccccc23)CC1 (configuration not stated),119%,123%,127%,117%,125%,132%,116%,121%,120%,106%,109%,121%,123%,126%,117%,127%,125%,115%,109%,107%,90.4%,82.4%,,,,,,,,,,,
Cc1nc(C(=O)NCC(=O)O)c(O)c2ccc(Oc3ccccc3)cc12,111%,97.3%,107%,105%,113%,91.4%,98.4%,99.5%,94.8%,102%,98.7%,99.4%,101%,102%,104%,101%,98.8%,101%,94.8%,96.9%,93.6%,77%,107%,111%,115%,105%,110%,102%,110%,101%,103%,99.2%,85.5%
O=C1N\N=C(\C[C@@H]2CCN(C2)C(=O)C3CC3)N1C4=CC=C(C=C4)C5=CC=C6OC=CC6=C5,79.6%,82%,83.2%,86.1%,91.9%,81.5%,81%,88.7%,83.7%,83.2%,80.3%,83.3%,79.8%,81.6%,84%,93.6%,84.5%,91.1%,80.6%,82.9%,86.3%,85.7%,76.3%,77%,77.1%,78.3%,87.6%,75.5%,73.6%,78.8%,82.1%,78.2%,83.9%
COc1cc([C@@H]2c3cc4c(cc3[C@@H](O[C@@H]3O[C@@H]5CO[C@@H](C)O[C@H]5[C@H](O)[C@H]3O)[C@H]3COC(=O)[C@H]23)OCO4)cc(OC)c1O,87.1%,89.5%,90.2%,80.9%,76.8%,85.8%,73.1%,12.1%,3.56%,1.85%,6.17%,73.4%,78.2%,84.7%,78.1%,78.7%,74.1%,63.9%,8.76%,4.69%,3.79%,4.42%,79.5%,86.9%,78.2%,76%,83.6%,67.6%,51.7%,6.56%,3.5%,3.55%,4.21%
COC(=O)[C@@H]1CC2=CC(=O)CC[C@]2(C)[C@@]23O[C@@H]2C[C@@]2(C)[C@@H](CC[C@@]24CCC(=O)O4)[C@H]13,98.1%,113%,104%,106%,112%,117%,117%,115%,120%,121%,112%,100%,117%,115%,112%,112%,115%,118%,113%,117%,119%,126%,107%,109%,112%,124%,123%,122%,123%,127%,130%,135%,128%
CN1C(=O)C(=C/2N(C(=O)N(C3CC3)C(=O)C2=C1/NC4=CC=C(I)C=C4F)C5=CC=CC(=C5)NC(C)=O)\C,121%,130%,122%,123%,113%,112%,101%,90.9%,12.8%,4.68%,4.28%,,,,,,,,,,,,,,,,,,,,,,
NC(=O)c1ncn([C@@H]2O[C@H](CO)[C@@H](O)[C@H]2O)c1N,120%,124%,120%,119%,122%,121%,122%,117%,115%,115%,104%,,,,,,,,,,,,,,,,,,,,,,
CC1(C)CCC(=C(\C1)C2=CC=C(Cl)C=C2)/CN3CCN(CC3)C4=CC(=C(C=C4)C(=O)N[S+]([O-])(=O)C5=CC=C(NCC6CCOCC6)C(=C5)[N+]([O-])=O)OC7=CN=C8[NH]C=CC8=C7,98.6%,108%,104%,102%,98%,98.3%,98.5%,97.5%,83.9%,67%,49%,100%,103%,101%,105%,96.3%,103%,99%,90.8%,96.1%,78.1%,65.7%,103%,106%,114%,104%,104%,100%,99.2%,89.6%,96.5%,81.5%,68.1%
CN(C)c1ccccc1CN1CCCN(Cc2ccccc2N(C)C)C1c1ccncc1,84.7%,94.7%,101%,11.9%,102%,100%,108%,111%,108%,78.3%,94.1%,82.3%,88.5%,82.8%,19.7%,92.9%,91.7%,91.1%,93.4%,101%,100%,71.9%,84%,90.7%,94%,11%,93.7%,99%,108%,105%,103%,102%,80.2%
CC/C(=C(\c1ccccc1)c1ccc(OCCN(C)C)cc1)c1ccccc1,102%,106%,102%,104%,95.8%,109%,104%,109%,113%,104%,86.3%,113%,108%,113%,114%,95.3%,112%,117%,117%,104%,102%,76.9%,99.9%,102%,96.2%,118%,89.7%,102%,104%,99.4%,108%,100%,83.9%
CCCCCCCN(CC)CCCC(O)c1ccc(NS(C)(=O)=O)cc1.CCCCCCCN(CC)CCCC(O)c1ccc(NS(C)(=O)=O)cc1.O=C(O)/C=C/C(=O)O (configuration not stated),111%,108%,116%,111%,101%,125%,113%,112%,112%,88.9%,77.7%,100%,101%,106%,113%,94.8%,108%,111%,113%,98.9%,93%,69.2%,107%,118%,113%,108%,85.4%,115%,116%,111%,102%,89.6%,69.1%
O=C1CCc2cc(OCCCCc3nnnn3C3CCCCC3)ccc2N1,90.5%,92.6%,87.5%,95.7%,96.4%,97.6%,94.2%,95.6%,96%,97.4%,96.9%,90.2%,88.1%,90%,94.6%,88.4%,91.8%,95.9%,90.2%,89.6%,88.1%,87.1%,78.9%,93.8%,89.2%,81%,91.2%,94.2%,98.1%,95.8%,85.2%,98.5%,99.2%
CO[C@H]1C[C@H]2OC[C@@]2(OC(C)=O)[C@H]3[C@H](OC(=O)C4=CC=CC=C4)[C@]5(O)C[C@H](OC(=O)[C@H](O)[C@@H](NC(=O)OC(C)(C)C)C6=CC=CC=C6)/C(=C(/[C@@H](OC)C(=O)[C@]13C)C5(C)C)C,78.2%,87.6%,29.3%,28.4%,19%,18.9%,18.8%,20.1%,12.1%,13.4%,7.21%,73.7%,71.1%,67.9%,34.5%,28%,27.7%,24.2%,26.1%,20.2%,21%,11.9%,69.9%,81.6%,70.8%,30.4%,11.6%,15.3%,15.2%,15.9%,10.5%,10.6%,10.8%
CN1C(=O)\C(=C/C2=C1N=C(NC3CCOCC3)N=C2)OC4=C(F)C=C(F)C=C4,92.5%,96.2%,95.4%,95.3%,96.9%,90.2%,87.5%,93.2%,82.6%,87.2%,50.7%,100%,94.7%,90.6%,87.1%,96.3%,99.1%,93.5%,86.7%,79.3%,81.8%,35.9%,92.3%,90.3%,93.5%,95.2%,96.1%,96.6%,91.8%,90%,90.5%,90.4%,39.4%
CNC(=O)c1ccccc1Sc1ccc2c(/C=C/c3ccccn3)n[nH]c2c1,116%,111%,107%,115%,112%,109%,106%,84.5%,77.8%,17.9%,14%,,,,,,,,,,,,117%,116%,126%,116%,110%,97.2%,108%,87%,78.9%,28%,21.6%
NC(=O)Cc1cccc(C(=O)c2ccccc2)c1N,101%,103%,103%,92.6%,110%,111%,103%,106%,97.7%,98.6%,95.6%,102%,101%,101%,85.2%,96.1%,98.3%,101%,99.3%,101%,87.7%,85.2%,100%,96.6%,102%,86.9%,106%,94.3%,97%,96.2%,99%,85.3%,82.9%
